Tested on: T47D (PIK3CA H1047R) cells
Test: pS473 AKT assay with 2.5% FBS, T47D cells
Assay type: cell-based
Conditions: Homo sapiens, pSer473 AKT, DMEM with 2.5% FBS, 2 h treatment, read-out: T47D_IC50
Procedure, shortened: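 T47D (PIK3CA H1047R) cells were switched to DMEM with 2.5% FBS and exposed to compounds for 2 h. After paraformaldehyde fixation, pSer473 AKT was detected by in-cell ELISA (rabbit primary, HRP anti-rabbit secondary, chemiluminescence); IC50 values were fitted from the concentration series.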

IC50	Structure (SMILES)
< 1000 nM	CCn1ncc2c3c(C(C)Nc4ccc(Cl)nc4-c4ncn(C)n4)cc(C)cc3c(=O)n(CC(F)F)c21 (stereo not drawn) [Example 236, 9-(1-((6-chloro-2-(1-methyl-1H-1,2,4-triazol-3-yl)pyridin-3-yl)amino)ethyl)-4-(2,2-difluoroethyl)-3-ethyl-7-methyl-3,4-dihydro-5H-pyrazolo[3,4-c]isoquinolin-5-one]
< 1000 nM	CC(=O)N1CCC(Cn2ncc3c4c(C(C)Nc5ccc(Cl)nc5-c5cnn(C)c5)cc(C)cc4c(=O)n(C)c32)CC1 (stereo not drawn) [Compound 107, 3-((1-acetylpiperidin-4-yl)methyl)-9-(1-((6-chloro-2-(1-methyl-1H-pyrazol-4-yl)pyridin-3-yl)amino)ethyl)-4,7-dimethyl-3,4-dihydro-5H-pyrazolo[3,4-c]isoquinolin-5-one]
< 1000 nM	Cc1cc(C(C)Nc2ccccc2C(=O)O)c2c(c1)c(=O)n(C)c1ncnn21 (stereo not drawn) [Compound I-15, 2-((1-(4,7-Dimethyl-5-oxo-4,5-dihydro-[1,2,4]triazolo[1,5-a]quinazolin-9-yl)ethyl)amino)benzoic acid]
< 1000 nM	Cc1cc(C(C)Nc2ccc(Cl)nc2-c2ncn(C)n2)c2c(c1)c(=O)n(C)c1c2cnn1C1CN(CC(C)(C)O)C1 (stereo not drawn) [Compound 93, 9-(1-((6-chloro-2-(1-methyl-1H-1,2,4-triazol-3-yl)pyridin-3-yl)amino)ethyl)-3-(1-(2-hydroxy-2-methylpropyl)azetidin-3-yl)-4,7-dimethyl-3,4-dihydro-5H-pyrazolo[3,4-c]isoquinolin-5-one]
< 1000 nM	Cc1cc(C(C)Nc2ccc(Cl)nc2-c2nnco2)c2c(c1)c(=O)n(C)c1c2cnn1C1CCN(C)CC1 (stereo not drawn) [Compound 162, 9-[1-[[6-chloro-2-(1,3,4-oxadiazol-2-yl)-3-pyridyl]amino]ethyl]-4,7-dimethyl-3-(1-methyl-4-piperidyl)pyrazolo[3,4-c]isoquinolin-5-one]
< 1000 nM	Cc1cc(C(C)Nc2ccc(C)nc2-c2cnn(C3CCOCC3)c2)c2c(c1)c(=O)n1c3c2cnn3CCC1 (stereo not drawn) [Compound 318, 8-methyl-10-(1-((6-methyl-2-(1-(tetrahydro-2H-pyran-4-yl)-1H-pyrazol-4-yl)pyridin-3-yl)amino)ethyl)-4,5-dihydro-3H,6H-2,2a,5a-triazaaceanthrylen-6-one]
< 1000 nM	CCn1ncc2c3c(C(C)Nc4ccc(C)nc4-c4ccnn4C)cc(C)cc3c(=O)n(C)c21 (stereo not drawn) [Compound 54, 3-ethyl-4,7-dimethyl-9-(1-((6-methyl-2-(1-methyl-1H-pyrazol-5-yl)pyridin-3-yl)amino)ethyl)-3,4-dihydro-5H-pyrazolo[3,4-c]isoquinolin-5-one]
< 1000 nM	CNC(=O)C1CCN(c2nc(Cl)ccc2NC(C)c2cc(C)cc3c(=O)n4c5c(cnn5CCC4)c23)CC1 (stereo not drawn) [Compound 292, 1-(6-chloro-3-((1-(8-methyl-6-oxo-4,5-dihydro-3H,6H-2,2a,5a-triazaaceanthrylen-10-yl)ethyl)amino)pyridin-2-yl)-N-methylpiperidine-4-carboxamide]
< 1000 nM	Cc1cc(C(C)Nc2ccc(Cl)nc2-c2ncn(C)n2)c2c(c1)c(=O)n(C)c1c2cnn1C1CN(CCC#N)C1 (stereo not drawn) [Compound 96, 3-(3-(9-(1-((6-chloro-2-(1-methyl-1H-1,2,4-triazol-3-yl)pyridin-3-yl)amino)ethyl)-4,7-dimethyl-5-oxo-4,5-dihydro-3H-pyrazolo[3,4-c]isoquinolin-3-yl)azetidin-1-yl)propanenitrile]
< 1000 nM	CCn1c(=O)c2cc(C)cc(C(C)Nc3ccc(Cl)nc3C(=O)O)c2c2cnn(C)c21 (stereo not drawn) [Compound I-22, 6-Chloro-3-((1-(4-ethyl-3,7-dimethyl-5-oxo-4,5-dihydro-3H-pyrazolo[3,4-c]isoquinolin-9-yl)ethyl)amino)picolinic acid]

Second part, the compound before the results:

Structure (SMILES)	IC50
CCn1ncc2c3c(C(C)Nc4ccc(Cl)nc4-c4ccncn4)cc(C)cc3c(=O)n(C)c21 (stereo not drawn) [Compound 43, 9-(1-((6-chloro-2-(pyrimidin-4-yl)pyridin-3-yl)amino)ethyl)-3-ethyl-4,7-dimethyl-3,4-dihydro-5H-pyrazolo[3,4-c]isoquinolin-5-one]	< 1000 nM
CCn1ncc2c3c(C(C)Nc4ccc(Cl)nc4-c4cnn(C5CCN(C(=O)N(C)C)CC5)c4)cc(C)cc3c(=O)n(C)c21 (stereo not drawn) [Example 233, 4-(4-(6-chloro-3-((1-(3-ethyl-4,7-dimethyl-5-oxo-4,5-dihydro-3H-pyrazolo[3,4-c]isoquinolin-9-yl)ethyl)amino)pyridin-2-yl)-1H-pyrazol-1-yl)-N,N-dimethylpiperidine-1-carboxamide]	< 1000 nM
Cc1cc(C(C)Nc2ccc(F)cc2-c2cnn(C)c2)c2c(c1)c(=O)n(C)c1c(C(=O)N(C)C)ncn21 (stereo not drawn) [Compound 128, 9-(1-((4-fluoro-2-(1-methyl-1H-pyrazol-4-yl)phenyl)amino)ethyl)-N,N,4,7-tetramethyl-5-oxo-4,5-dihydroimidazo[1,5-a]quinazoline-3-carboxamide]	< 1000 nM
CCc1ncn2c3c(C(C)Nc4ccccc4C(=O)O)cc(C)cc3c(=O)n(C)c12 (stereo not drawn) [Compound I-5, 2-((1-(3-Ethyl-4,7-dimethyl-5-oxo-4,5-dihydroimidazo[1,5-a]quinazolin-9-yl)ethyl)amino)benzoic acid]	< 1000 nM
CCn1c(=O)c2cc(C)cc(C(C)Nc3ccc(Cl)nc3-c3ccc(C(=O)NC)nc3)c2c2cnn([C@H]3CCOC3)c21 (stereo partly drawn) [Example 220, 6-chloro-3-((1-(4-ethyl-7-methyl-5-oxo-3-((S)-tetrahydrofuran-3-yl)-4,5-dihydro-3H-pyrazolo[3,4-c]isoquinolin-9-yl)ethyl)amino)-N-methyl-[2,3′-bipyridine]-6′-carboxamide]	< 1000 nM
Cc1cc(C(C)Nc2ccc(Cl)nc2-c2ncn(C)n2)c2c(c1)c(=O)n(C)c1c2cnn1C1CCN(C(=O)[C@@H]2CCCN2C)CC1 (stereo partly drawn) [Example 197, 9-(1-((6-chloro-2-(1-methyl-1H-1,2,4-triazol-3-yl)pyridin-3-yl)amino)ethyl)-4,7-dimethyl-3-(1-(methyl-L-prolyl)piperidin-4-yl)-3,4-dihydro-5H-pyrazolo[3,4-c]isoquinolin-5-one]	< 1000 nM
CCn1ncc2c3c(C(C)Nc4ccccc4N4CCN(C(C)=O)CC4)cc(C)cc3c(=O)n(C)c21 (stereo not drawn) [Compound 57, 9-(1-((2-(4-Acetylpiperazin-1-yl)phenyl)amino)ethyl)-3-ethyl-4,7-dimethyl-3,4-dihydro-5H-pyrazolo[3,4-c]isoquinolin-5-one]	< 1000 nM
CCn1ncc2c3c(C(C)Nc4ccc(Cl)nc4-c4ccnn4C)cc(C)cc3c(=O)n(C)c21 (stereo not drawn) [Compound 48, 9-(1-((6-chloro-2-(1-methyl-1H-pyrazol-5-yl)pyridin-3-yl)amino)ethyl)-3-ethyl-4,7-dimethyl-3,4-dihydro-5H-pyrazolo[3,4-c]isoquinolin-5-one]	< 1000 nM
CCn1ncc2c3c(C(C)Nc4ccc(Cl)nc4-c4cn[nH]c4)cc(C)cc3c(=O)n(C)c21 (stereo not drawn) [Compound 51, 9-(1-((6-chloro-2-(1H-pyrazol-4-yl)pyridin-3-yl)amino)ethyl)-3-ethyl-4,7-dimethyl-3,4-dihydro-5H-pyrazolo[3,4-c]isoquinolin-5-one]	< 1000 nM
CCn1ncc2c3c(C(CO)Nc4ccc(Cl)nc4-c4cnn(C)c4C)cc(C)cc3c(=O)n(C)c21 (stereo not drawn) [Compound 78, 9-(1-((6-Chloro-2-(1,5-dimethyl-1H-pyrazol-4-yl)pyridin-3-yl)amino)-2-hydroxyethyl)-3-ethyl-4,7-dimethyl-3,4-dihydro-5H-pyrazolo[3,4-c]isoquinolin-5-one]	< 1000 nM
Cc1cc(C(C)Nc2ccc(Cl)nc2-c2ccc3ncccc3c2)c2c(c1)c(=O)n1c3c2cnn3CCC1 (stereo not drawn) [Compound 315, 10-(1-((6-chloro-2-(quinolin-6-yl)pyridin-3-yl)amino)ethyl)-8-methyl-4,5-dihydro-3H,6H-2,2a,5a-triazaaceanthrylen-6-one]	< 1000 nM
CCc1ncn2c3c(C(C)Nc4ccccc4C(=O)O)cc(Cl)cc3c(=O)n(C)c12 (stereo not drawn) [Compound I-9, 2-((1-(7-Chloro-3-ethyl-4-methyl-5-oxo-4,5-dihydroimidazo[1,5-a]quinazolin-9-yl)ethyl)amino)benzoic acid]	< 1000 nM
Cc1cc(C(C)Nc2ccc(Cl)nc2-c2ncn(C)n2)c2c(c1)c(=O)n(C)c1c2cnn1C1CN(C)C1 (stereo not drawn) [Compound 82, 9-(1-((6-chloro-2-(1-methyl-1H-1,2,4-triazol-3-yl)pyridin-3-yl)amino)ethyl)-4,7-dimethyl-3-(1-methylazetidin-3-yl)-3,4-dihydro-5H-pyrazolo[3,4-c]isoquinolin-5-one]	< 1000 nM
CCn1c(=O)c2cc(C)cc(C(C)Nc3ccc(Cl)nc3-c3cnn(C4CCN(C)CC4)c3)c2c2cnn([C@H]3CCOC3)c21 (stereo partly drawn) [Example 217, 9-(1-((6-chloro-2-(1-(1-methylpiperidin-4-yl)-1H-pyrazol-4-yl)pyridin-3-yl)amino)ethyl)-4-ethyl-7-methyl-3-((S)-tetrahydrofuran-3-yl)-3,4-dihydro-5H-pyrazolo[3,4-c]isoquinolin-5-one]	< 1000 nM
Cc1cc(C(C)Nc2ccc(Cl)nc2-c2cncnc2)c2c(c1)c(=O)n(C)c1c2cnn1CCO (stereo not drawn) [Example 252, 9-(1-((6-chloro-2-(pyrimidin-5-yl)pyridin-3-yl)amino)ethyl)-3-(2-hydroxyethyl)-4,7-dimethyl-3,4-dihydro-5H-pyrazolo[3,4-c]isoquinolin-5-one]	< 1000 nM
CNC(=O)c1ccc(-c2nc(Cl)ccc2NC(C)c2cc(C)cc3c(=O)n4c5c(cnn5CCC4)c23)cn1 (stereo not drawn) [Compound 310, 6-chloro-N-methyl-3-((1-(8-methyl-6-oxo-4,5-dihydro-3H,6H-2,2a,5a-triazaaceanthrylen-10-yl)ethyl)amino)-[2,3′-bipyridine]-6′-carboxamide]	< 1000 nM
Cc1cc(C(C)Nc2ccc(Cl)nc2-c2ncn(C)n2)c2c(c1)c(=O)n(C)c1c2cnn1C1CCN(CC(C)(C)O)CC1 (stereo not drawn) [Compound 175, 9-(1-((6-chloro-2-(1-methyl-1H-1,2,4-triazol-3-yl)pyridin-3-yl)amino)ethyl)-3-(1-(2-hydroxy-2-methylpropyl)piperidin-4-yl)-4,7-dimethyl-3,4-dihydro-5H-pyrazolo[3,4-c]isoquinolin-5-one]	< 1000 nM
